Legend:
Assay type in all cases: functional, cell-based; call rule not given here
HeLa = assay: Concentration required to inhibit growth of human cervical carcinoma (HeLa) cell line
KB [1] = assay: Concentration required to inhibit growth of human epidermoid carcinoma (KB) cell line
Vero = assay: Concentration required to inhibit growth of african green monkey kidney cell line; settings: Chlorocebus sabaeus
HepG2 = assay: Concentration required to inhibit growth of human hepatocellular carcinoma (HepG2) cell line
KB [2] = assay: Concentration required to inhibit growth of human epidermoid carcinoma (KB) cell line; IA= Inactive

Structure (SMILES)	IC50 (HeLa)	IC50 (KB [1])	IC50 (Vero)	IC50 (HepG2)	IC50 (KB [2])
CC(COC(=O)c1ccc2ccccc2c1O)CC1=C(O)C(=O)c2ccccc2C1=O (centres undefined)	3.97 µM	1.06 µM	0.7 µM	1 µM	
CC(C)(COC(=O)c1ccc2ccccc2c1O)CC1=C(O)C(=O)c2ccccc2C1=O	< 0.23 µM	< 0.23 µM	1 µM	0.32 µM	
O=C1C(=O)c2ccccc2C(O)=C1CCCOC(=O)c1ccc2ccccc2c1O	15.1 µM	12.3 µM	124 µM	16.2 µM	
COC1=C(CC(C)(C)COC(=O)c2ccc3ccccc3c2)C(=O)c2ccccc2C1=O	44.9 µM	91.5 µM	47.9 µM	127 µM	
O=C1C=C(CCCOC(=O)c2ccc3ccccc3c2O)C(=O)c2ccccc21	> 259 µM	> 259 µM	> 259 µM	> 259 µM	
CC(COC(=O)c1ccc2ccccc2c1)CC1=CC(=O)c2ccccc2C1=O (centres undefined)	38.2 µM	29 µM	43.4 µM	27.3 µM	
O=C(OCCCC1=CC(=O)c2ccccc2C1=O)c1ccc2ccccc2c1	12.9 µM	13.7 µM	14.9 µM	10.2 µM	
COc1ccc(O)c(C(=O)OCC(C)CC2=C(O)C(=O)c3ccccc3C2=O)c1 (centres undefined)	4.55 µM	4.04 µM	14 µM	4.96 µM	
CC(C)(CO)CC1=C(O)C(=O)c2ccccc2C1=O		11.2 µM			
CC(COC(=O)c1ccccc1O)CC1=C(O)C(=O)c2ccccc2C1=O (centres undefined)	10.3 µM	4.65 µM	75.9 µM	11.6 µM	
COc1cc(C(=O)OCCCC2=CC(=O)c3ccccc3C2=O)c(OC)c2ccccc12	> 233 µM	> 233 µM	> 233 µM	> 233 µM	
COC1C(C(=O)O)=CCc2ccccc21 (centres undefined)					Not Active
CC(COC(=O)c1ccccc1)CC1=C(O)C(=O)c2ccccc2C1=O (centres undefined)	4.76 µM	4.57 µM	2.31 µM	8.43 µM	
O=C(O)C1=CCc2ccccc2C1O (centres undefined)					Not Active
COc1cc(C(=O)OCC(C)(C)CC2=C(O)C(=O)c3ccccc3C2=O)c(O)c2ccccc12	0.3 µM	< 0.22 µM	12.7 µM	0.38 µM	
COc1ccccc1C(=O)OCC(C)CC1=C(O)C(=O)c2ccccc2C1=O (centres undefined)	4.12 µM	1.64 µM	29.8 µM	4.04 µM	
O=C1C(=O)c2ccccc2C(O)=C1CCCOC(=O)c1ccc2ccccc2c1	15.8 µM	14.4 µM	24 µM	15.5 µM	
COc1ccc(OC)c(C(=O)OCC(C)(C)CC2=C(O)C(=O)c3ccccc3C2=O)c1	3.42 µM	3.38 µM	9.11 µM	3.54 µM	
CC(C)(COC(=O)c1ccccc1)CC1=C(O)C(=O)c2ccccc2C1=O	3.02 µM	1.53 µM	48.6 µM	4.85 µM	
CC(COC(=O)c1ccc2ccccc2c1)CC1=C(O)C(=O)c2ccccc2C1=O (centres undefined)	4.25 µM	3.58 µM	1.8 µM	3.7 µM	
O=C(O)C1=CCc2ccccc2C1					Not Active
CC(C)(COC(=O)c1cc(O)ccc1O)CC1=C(O)C(=O)c2ccccc2C1=O	45.5 µM	64.4 µM	77 µM	47.6 µM	
COC1=C(CC(C)(C)COC(=O)c2ccccc2)C(=O)c2ccccc2C1=O	40.6 µM	43 µM	34.8 µM	46.7 µM	
COc1ccccc1C(=O)OCC(C)(C)CC1=C(O)C(=O)c2ccccc2C1=O	4.04 µM	1.86 µM	8.98 µM	4.72 µM	
COC1C=C(C(=O)O)C(OC)c2ccccc21 (centres undefined)					Not Active

Structure (SMILES)	IC50 (HeLa)	IC50 (KB [1])	IC50 (Vero)	IC50 (HepG2)	IC50 (KB [2])
COc1cc(C(=O)OCCCC2=C(O)C(=O)c3ccccc3C2=O)c(OC)c2ccccc12	32.3 µM	12.8 µM	75.4 µM	35.9 µM	
CC(C)(COC(=O)c1cc(O)c2ccccc2c1O)CC1=C(O)C(=O)c2ccccc2C1=O	12.4 µM	4.22 µM	15.4 µM	12.9 µM	
CC(C)(COC(=O)c1ccc2ccccc2c1O)CC1=CC(=O)c2ccccc2C1=O	45.9 µM	38.2 µM	90.8 µM	48.3 µM	
COc1cc(C(=O)OCC(C)CC2=C(O)C(=O)c3ccccc3C2=O)c(OC)c2ccccc12 (centres undefined)	3.8 µM	3.52 µM	5.91 µM	3.65 µM	
CC(C)(COC(=O)c1ccccc1O)CC1=C(O)C(=O)c2ccccc2C1=O	4.34 µM	4.65 µM	> 136 µM	5.44 µM	
COc1cc(C(=O)OCCCC2=C(O)C(=O)c3ccccc3C2=O)c(O)c2ccccc12	4.24 µM	4.09 µM	40.9 µM	4.28 µM	
COC1=C(CC(C)(C)COC(=O)c2ccc3ccccc3c2OC)C(=O)c2ccccc2C1=O	9.47 µM	10.1 µM	5.96 µM	11.5 µM	
CC(COC(=O)c1ccc2ccccc2c1O)CC1=CC(=O)c2ccccc2C1=O (centres undefined)	46.2 µM	38.6 µM	37.9 µM	42.1 µM	
COC1=C(CC(C)(C)COC(=O)c2cc(OC)ccc2OC)C(=O)c2ccccc2C1=O	38.8 µM	14.9 µM	13.4 µM	40.7 µM	
COc1cccc2c1C(=O)c1c(O)c3c(c(O)c1C2=O)C[C@@](O)(C(=O)CO)C[C@@H]3O[C@H]1C[C@H](N)[C@H](O)[C@H](C)O1 [DOXORUBICIN]	0.33 µM	0.03 µM	23.9 µM	0.4 µM	
O=C1C(O)=C(CCCO)C(=O)c2ccccc21					Not Active
COc1ccc(OC)c(C(=O)OCC(C)CC2=C(O)C(=O)c3ccccc3C2=O)c1 (centres undefined)	41.9 µM	37.6 µM	4.05 µM	53.1 µM	
COc1c(C(=O)OCC(C)CC2=C(O)C(=O)c3ccccc3C2=O)ccc2ccccc12 (centres undefined)	0.38 µM	0.66 µM	0.97 µM	1.04 µM	
COc1cc(C(=O)OCCCC2=CC(=O)c3ccccc3C2=O)c(O)c2ccccc12	45.4 µM	93.8 µM	48.5 µM	64.4 µM	
COc1c(C(=O)OCC(C)CC2=CC(=O)c3ccccc3C2=O)ccc2ccccc12 (centres undefined)	39.5 µM	26.4 µM	20.2 µM	39.5 µM	
COc1ccc(O)c(C(=O)OCC(C)(C)CC2=C(O)C(=O)c3ccccc3C2=O)c1	3.33 µM	1.18 µM	11.5 µM	1.61 µM	
COc1c(C(=O)OCCCC2=C(O)C(=O)c3ccccc3C2=O)ccc2ccccc12	42.9 µM	33.7 µM	120 µM	45.7 µM	
COc1c(C(=O)OCC(C)(C)CC2=CC(=O)c3ccccc3C2=O)ccc2ccccc12	36.9 µM	12.5 µM	30.4 µM	14.4 µM	
COc1cc(C(=O)OCC(C)CC2=C(O)C(=O)c3ccccc3C2=O)c(O)c2ccccc12 (centres undefined)	2.83 µM	2.16 µM	< 0.22 µM	3.14 µM	
CC(C)(COC(=O)c1ccc2ccccc2c1)CC1=C(O)C(=O)c2ccccc2C1=O	1.17 µM	1.59 µM	1.5 µM	1.3 µM	
COc1c(C(=O)OCC(C)(C)CC2=C(O)C(=O)c3ccccc3C2=O)ccc2ccccc12	0.23 µM	< 0.22 µM	17.6 µM	0.24 µM	
CC(CO)CC1=C(O)C(=O)c2ccccc2C1=O (centres undefined)		59.4 µM			
CC(C)(COC(=O)c1ccc2ccccc2c1)CC1=CC(=O)c2ccccc2C1=O	41.2 µM	32 µM	33.3 µM	45.2 µM	
COc1c(C(=O)OCCCC2=CC(=O)c3ccccc3C2=O)ccc2ccccc12	47.5 µM	50 µM	40 µM	54.2 µM	
COc1cc(C(=O)OCC(C)(C)CC2=C(O)C(=O)c3ccccc3C2=O)c(OC)c2ccccc12	1.09 µM	0.35 µM	32.7 µM	0.97 µM	
